tested on: human bronchial epithelial cells, CFTR corrector, plate reader; experiment: rescue of ΔF508 CFTR function, airway epithelium – human bronchial epithelial cells, plate reader, cherry-pick, two tests, dose response (AID 743267); conditions: measured here: test 1 replicate run

Structure (SMILES)	AC50 [µM]
C[C@@H]1CN([C@H](C)CO)S(=O)(=O)c2ccc(-c3ccc(C#N)cc3)cc2O[C@H]1CN(C)Cc1ccccn1	16

same assay, conditions: measured here: test 2 replicate run

Structure (SMILES)	AC50 [µM]
Cc1c(OCC(=O)NCCN2CCOCC2)ccc2c3c(c(=O)oc12)CCC3	> 50
CC/C=C/CC(=O)N[C@@H](c1ccccc1)[C@@H](O)C(=O)O[C@H]1C[C@@]2(O)[C@@H](OC(=O)c3ccccc3)C3[C@](C)(C(=O)[C@H](OC(C)=O)C(=C1C)C2(C)C)[C@@H](O)C[C@H]1OC[C@@]31OC(C)=O (some centres undefined)	3.4
COc1nc(N)nc(NC(=O)c2cccs2)c1N=O	16
COc1ccc(-c2ccc3oc(-c4ccc(OC)cc4)c(C#CCO)c3c2)cc1	> 50
NC(=O)N=Nc1c2[nH]c3ccccc3nc-2c2ccccc12	8.41
COc1cccc2c1C(=O)C=C(C)C2=O	15.2
CCN(c1cccc(C)c1)S(=O)(=O)c1ccc(-c2cc(C)no2)s1	5.94
CCN(CC)c1ccc(/C=N/NC(=O)c2cnccn2)c(O)c1	2.2

Reference: PubChem BioAssay AID743267 (Broad Institute, 2014)
